Changes are numbered by the printed parent chain. Values joined by “and” are separate entries in the source; they are usually repeats but may differ in a detail not shown here. Equal values may be shown once. Read-outs that look alike come from different tables or passages of the source.
Legend:
RDL = molecular target: T1, RDL (Drosophila melanogaster, UniProt P25123); format: cell-based
T1 sequence (P25123 45-606): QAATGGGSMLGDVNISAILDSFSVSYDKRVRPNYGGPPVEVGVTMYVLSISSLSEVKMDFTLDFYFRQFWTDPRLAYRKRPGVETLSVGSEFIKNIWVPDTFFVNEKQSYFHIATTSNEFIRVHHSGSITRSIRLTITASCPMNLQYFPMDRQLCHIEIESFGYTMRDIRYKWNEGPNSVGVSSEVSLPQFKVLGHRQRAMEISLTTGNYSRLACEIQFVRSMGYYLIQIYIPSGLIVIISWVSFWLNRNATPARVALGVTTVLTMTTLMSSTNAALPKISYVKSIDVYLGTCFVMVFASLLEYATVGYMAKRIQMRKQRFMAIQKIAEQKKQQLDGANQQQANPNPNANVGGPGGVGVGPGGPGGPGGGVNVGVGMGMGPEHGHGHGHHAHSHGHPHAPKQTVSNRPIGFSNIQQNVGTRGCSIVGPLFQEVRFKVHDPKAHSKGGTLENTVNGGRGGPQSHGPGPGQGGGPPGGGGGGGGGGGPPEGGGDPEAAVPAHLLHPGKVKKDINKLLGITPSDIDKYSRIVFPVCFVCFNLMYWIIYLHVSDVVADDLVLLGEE

RDLA2'V = molecular target: T2, RDLA2'V (Drosophila melanogaster, UniProt P25123, A301V); test: cell-based; format: cell-based
T2 sequence (P25123 45-606 A301V): T1 sequence (P25123 45-606) with A257V

[1] = molecular target: T3, human α1β2 GABAA receptors (Homo sapiens, UniProt P14867+P47870); test: Two-electrode voltage clamp of α1β2 GABAA receptors in Xenopus oocytes; format: cell-based; conditions: for IC50: IC50, inhibition of GABA EC50 response
T3 sequence (P14867 28-456): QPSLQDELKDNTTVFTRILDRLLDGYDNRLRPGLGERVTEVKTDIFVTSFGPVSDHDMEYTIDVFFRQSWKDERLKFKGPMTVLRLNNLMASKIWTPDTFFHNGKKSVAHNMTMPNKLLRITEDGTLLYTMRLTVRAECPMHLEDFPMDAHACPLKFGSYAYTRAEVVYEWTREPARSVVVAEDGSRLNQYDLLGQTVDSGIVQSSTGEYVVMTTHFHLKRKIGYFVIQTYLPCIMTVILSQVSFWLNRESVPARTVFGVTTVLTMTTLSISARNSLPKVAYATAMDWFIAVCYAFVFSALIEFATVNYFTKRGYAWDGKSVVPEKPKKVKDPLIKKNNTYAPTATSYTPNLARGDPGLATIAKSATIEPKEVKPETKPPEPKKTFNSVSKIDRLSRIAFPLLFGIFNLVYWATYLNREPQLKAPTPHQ
T3 sequence (P47870 26-512): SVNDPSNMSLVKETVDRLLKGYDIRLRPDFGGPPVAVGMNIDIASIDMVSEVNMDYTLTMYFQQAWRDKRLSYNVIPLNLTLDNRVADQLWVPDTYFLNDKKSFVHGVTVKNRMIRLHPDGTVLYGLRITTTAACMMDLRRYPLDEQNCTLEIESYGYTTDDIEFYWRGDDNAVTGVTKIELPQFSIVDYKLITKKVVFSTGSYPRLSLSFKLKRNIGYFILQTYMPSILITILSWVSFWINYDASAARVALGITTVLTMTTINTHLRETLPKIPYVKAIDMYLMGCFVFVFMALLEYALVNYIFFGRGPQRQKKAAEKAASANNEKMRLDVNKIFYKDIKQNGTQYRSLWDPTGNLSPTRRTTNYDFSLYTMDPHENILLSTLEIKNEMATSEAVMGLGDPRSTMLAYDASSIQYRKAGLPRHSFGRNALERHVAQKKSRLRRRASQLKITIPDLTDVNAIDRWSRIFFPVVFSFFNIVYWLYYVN

α1V2'Aβ2 = molecular target: T4, α1V2'Aβ2 (Homo sapiens, UniProt P14867+P47870, V284A); format: cell-based
T4 sequence (P14867 28-456 V284A): T3 sequence (P14867 28-456) with V257A
T4 sequence (P47870 26-512): T3 sequence (P47870 26-512)

α1β2γ2 GABAA receptors = α1β2γ2 GABAA receptors (Homo sapiens, UniProt P14867+P18507+P47870); test: Two-electrode voltage clamp of α1β2γ2 GABAA receptors in Xenopus oocytes; format: cell-based
α1V2'Aβ2γ2 = α1V2'Aβ2γ2 (Homo sapiens, UniProt P14867+P18507+P47870, V284A); format: cell-based
[2] = test system: Canton-S adult D. melanogaster; test: Coated vial bioassay, wild-type; format: in vivo; conditions: for LD50: coated vial
[3] = test system: dieldrin-resistant (Rdl) adult D. melanogaster; test: Coated vial bioassay, dieldrin-resistant; format: in vivo; conditions: flies with A2'S mutation; ginkgolides up to 5000 ppm (limited by solubility)
RDLT6'V = molecular target: T5, RDLT6'V (Drosophila melanogaster, UniProt P25123, T305V); test: Two-electrode voltage clamp of RDLT6'V mutant receptors in Xenopus oocytes; format: cell-based
T5 sequence (P25123 45-606 T305V): T1 sequence (P25123 45-606) with T261V

humans = conditions: cited from earlier work
[4] = concentration-inhibition curve at GABA EC50

Sequence of α1β2γ2 GABAA receptors (P18507 40-475, one chain of several): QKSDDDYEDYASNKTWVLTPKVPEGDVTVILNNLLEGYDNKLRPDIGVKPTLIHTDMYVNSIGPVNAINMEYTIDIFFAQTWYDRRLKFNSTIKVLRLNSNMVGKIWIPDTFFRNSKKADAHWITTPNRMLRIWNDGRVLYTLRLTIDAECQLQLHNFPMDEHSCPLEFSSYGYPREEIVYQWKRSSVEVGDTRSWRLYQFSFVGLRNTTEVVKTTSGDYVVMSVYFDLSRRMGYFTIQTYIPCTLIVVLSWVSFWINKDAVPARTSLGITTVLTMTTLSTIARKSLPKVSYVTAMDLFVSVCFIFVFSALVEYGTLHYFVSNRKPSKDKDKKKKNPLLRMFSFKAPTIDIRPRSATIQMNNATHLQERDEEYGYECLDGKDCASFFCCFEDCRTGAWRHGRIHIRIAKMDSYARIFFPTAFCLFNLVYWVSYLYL
Sequence of α1V2'Aβ2γ2 (P14867 28-456 V284A, one chain of several): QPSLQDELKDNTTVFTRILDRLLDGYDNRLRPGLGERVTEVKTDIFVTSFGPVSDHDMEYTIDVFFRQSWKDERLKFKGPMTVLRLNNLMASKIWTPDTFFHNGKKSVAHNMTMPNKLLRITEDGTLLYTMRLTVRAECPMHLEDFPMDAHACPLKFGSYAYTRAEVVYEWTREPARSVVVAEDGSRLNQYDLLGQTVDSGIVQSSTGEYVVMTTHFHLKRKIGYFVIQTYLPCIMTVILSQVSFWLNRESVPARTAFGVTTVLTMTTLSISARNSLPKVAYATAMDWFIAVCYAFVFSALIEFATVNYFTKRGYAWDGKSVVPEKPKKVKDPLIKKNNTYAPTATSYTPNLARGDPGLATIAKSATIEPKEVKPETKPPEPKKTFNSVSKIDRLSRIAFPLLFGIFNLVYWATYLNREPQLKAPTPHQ
Sequence of α1V2'Aβ2γ2 (P18507 40-475, one chain of several): as the sequence (P18507 40-475, one chain of several) above

| Compound | nH (Hill coefficient) (RDL; [4]) | nH (Hill coefficient) (RDLA2'V; [4]) | IC50 [1] [nM] | nH (Hill coefficient) [1, 4] | nH (Hill coefficient) (α1V2'Aβ2; [4]) | IC50 (α1β2γ2 GABAA receptors) [nM] | nH (Hill coefficient) (α1β2γ2 GABAA receptors; [4]) | nH (Hill coefficient) (α1V2'Aβ2γ2; [4]) | LD50 ([2]; 24 h) [mg/mL] | LD50 ([2]; 48 h) [mg/mL] | LD50 ([2]; 72 h) [mg/mL] | further results |
| --- | --- | --- | --- | --- | --- | --- | --- | --- | --- | --- | --- | --- |
| CC(C)(C)[C@]1(O)CC2OC(=O)CC23C(=O)OC2OC(=O)[C@H](O)C231 (stereo partly shown) [BB, bilobalide] | 0.89 ± 0.09 | 1.85 ± 0.21 | 9330 | 0.85 ± 0.10 | 1.06 ± 0.10 | 22900 | 0.68 ± 0.10 | 1.16 ± 0.20 | 0.331 | 0.009 | 0.006 | IC50 (RDL): 316 nM; IC50 (α1V2'Aβ2; IC50, inhibition of GABA EC50 response): 2040 nM; IC50 (α1V2'Aβ2γ2): 3550 nM |
| ClC1=C(Cl)[C@]2(Cl)[C@@H]3[C@@H]4C[C@@H]([C@H]5O[C@@H]45)[C@@H]3[C@@]1(Cl)C2(Cl)Cl [dieldrin, reference compound] |  |  |  |  |  |  |  |  |  |  |  | LD50 ([2]; 24 h, wild-type flies): 0.002 mg/mL; LD50 ([2]; 48 h, wild-type flies): 0.002 mg/mL; LD50 ([2]; 72 h, wild-type flies): 0.0017 mg/mL; mortality / toxicity (in words) ([2]; wild-type (susceptible) flies): highly effective in killing; mortality / toxicity (in words) [3]: no significant mortality up to 72 h |
| NCCCC(=O)O [GABA, γ-aminobutyric acid, reference compound] |  |  |  |  |  |  |  |  |  |  |  | nH (Hill coefficient) (RDL; GABA concentration-response): 1.8 and 1.80 ± 0.20; nH (Hill coefficient) (RDLA2'V; GABA concentration-response): 2.20 ± 0.02; nH (Hill coefficient) ([1]; GABA concentration-response): 1.43 ± 0.18; nH (Hill coefficient) (α1V2'Aβ2; GABA concentration-response): 1.14 ± 0.12; increase in GABA sensitivity, α1 2' mutation vs wild type (α1V2'Aβ2; α1V2'A-containing α1β2 and α1β2γ2 receptors): 20–50 fold; nH (Hill coefficient) (α1β2γ2 GABAA receptors; GABA concentration-response): 1.64 ± 0.16; nH (Hill coefficient) (α1V2'Aβ2γ2; GABA concentration-response): 1.10 ± 0.11; nH (Hill coefficient) (RDLT6'V; GABA concentration-response): 1.44 ± 0.29 |
| C[C@@H]1C(=O)O[C@H]2C[C@@]34[C@H]5C[C@@H](C(C)(C)C)[C@]36[C@@H](OC(=O)[C@@H]6O)O[C@@]4(C(=O)O5)[C@]21O [GA, ginkgolide A] | 1.13 ± 0.18 | 1.48 ± 0.19 | 15800 | 0.65 ± 0.08 | 0.87 ± 0.14 | 38900 | 0.49 ± 0.07 | 0.86 ± 0.10 | 0.345 | 0.063 | 0.019 | IC50 (RDL; IC50, inhibition of GABA EC50 response, second stable level of inhibition): 3 nM; IC50 (RDL; IC50, inhibition of GABA-evoked RDL currents, as printed in text and Fig. 6): 3.1 nM; IC50 (RDL; pIC50, inhibition of GABA EC50 response, second stable level of inhibition): 3.24 nM |
| N#Cc1nn(-c2c(Cl)cc(C(F)(F)F)cc2Cl)c(N)c1[S+]([O-])C(F)(F)F (stereo not shown) [fipronil] |  |  |  |  |  |  |  |  |  |  |  | U.S. Environmental Protection Agency ranking (humans): moderately toxic |
| ginkgolide B [GB] | 1.43 ± 0.14 | 1.02 ± 0.20 |  | 0.94 ± 0.06 | 1.13 ± 0.09 |  | 0.61 ± 0.06 | 1.43 ± 0.29 | 0.171 | 0.031 | 0.010 | nH (Hill coefficient) (RDLT6'V; concentration-inhibition curve): 1.00 ± 0.70 |

From article PMC3336786 (The FASEB Journal, 2012)
